Tested on: THP-1
Assay: Cytotoxicity was determined against THP-1 cell line as reduction in cell number
Assay type: functional, cell-based
Details: Homo sapiens

SMILES | IC50 [nM]
CCc1c2nc(c(-c3ccc(O)c(C[N+](C)(C)C)c3)c3ccc([nH]3)c(CC)c3ccc([nH]3)c(-c3ccc(O)c(C[N+](C)(C)C)c3)c3nc1C=C3)C=C2 | 88.4
C[N+](C)(C)Cc1cc(-c2c3nc(cc4ccc([nH]4)c(-c4ccc(O)c(C[N+](C)(C)C)c4)c4nc(cc5ccc2[nH]5)C=C4)C=C3)ccc1O | 5.6
C[N+](C)(C)Cc1cc(-c2c3nc(c(-c4ccccc4)c4ccc([nH]4)c(-c4ccc(O)c(C[N+](C)(C)C)c4)c4ccc([nH]4)c(-c4ccccc4)c4nc2C=C4)C=C3)ccc1O | 61.8
CCc1c2nc(c(-c3ccc(OC)c(C[N+](C)(C)C)c3)c3ccc([nH]3)c(CC)c3ccc([nH]3)c(-c3ccc(OC)c(C[N+](C)(C)C)c3)c3nc1C=C3)C=C2 | 1400
